Measured values as given in patent publication US20260083126A1, “ANTIMICROBIAL COMPOSITIONS” (AHV International B.V., priority 2022, published 2026).
“Also recorded” adds a separate entry of the source.

Key:
HepG2 cell line = assay: MTT cytotoxicity test; type: cell-based, human; conditions: 24 h, 7.8 μM to 1 mM, emulsified with Tween-80/DMSO
Description: Scope. As standard tests cytotoxicity is measured on Caco-2 and HepG2 cell lines. Cytotoxicity of mentioned cell lines was determined by measuring the amount of converted MTT (3-(4,5-dimethylthiazol-2-yl)-2,5-diphenyltetrazolium bromide) by a mitochondrial dehydrogenase after exposure of various concentrations of the antimicrobial compounds. In living cells the dehydrogenase converts the soluble MTT into water insoluble purple formazan crystals that can not pass the cell membrane. The higher the metabolic activity of the cell, the more purple crystals are formed, the lower the cytotoxicity of the antimicrobial compound. HepG2 adherent cells were isolated from human liver and show epithelial morphology. Culture condition of the cells were followed based on the standard protocols. HepG2 cell line was cultured in 75-cm^2 culture flasks. Dulbecco's modified Eagle's minimum essential medium (DMEM)+Glutamax, supplemented with 10% (v/v) inactivated fetal calf serum (FCS) (Gibco), and penicillin (100 U/ml.)/streptomycin (100 μg/ml.) was utilized as medium for the growing cells. The cells were preserved in an incubator to provide them with the optimum moisture and temperature (humidified atmosphere of 95% air and 5% CO2 at 37° C. for 72 hours). The cells were grown on flat bottom 96-well plates to the appropriate density to run the experiments. The cells were exposed to increasing concentrations of emulsified test compound (8 concentration, ranging from 7.8 μM to 1 mM) in standard culture medium (Catalogue 31331028, ThemoFischer Scientific) for each cell line. It should be noted that all the experiments were conducted in FBS (Catalog A3840101, ThermoFischer Scientific) and antibiotic free medium. The concentration of Tween-80 and DMSO that is present in the assay to emulsify the antimicrobial compound was in the range from 0,007% to 1%. The cells were incubated for 24 h with emulsified test compound and the assay was performed based on the standard protocol. By the end of the experiment the medium (cell supernatants) was removed and the lysis buffer (0.04 M hydrochloric acid, in propan-2-ol) was added to each well to solubilize the purple formazan crystals. As the final step, the absorbance was recorded by a multi-well reader at 595 nm. Control experiment with emulsifiers Tween 80 and DMSO but without antimicrobial compounds was performed in a same way on both cell lines. The results from all experiments were expressed as mean #standard error of the mean (SEM) conducted in triplicate (three wells/condition) of three independent experiments. Differences between results were statistically evaluated using One-way ANOVA with Bonferroni post-hoc test.

plant pathogens = assay: Colony diameter on agar plates, all tested fungi (conclusion); type: cell-based; conditions: conclusion of Example 7b
Description: In particular, the antimicrobial activity of bis(p-chlorophenyl) disulfide (AM2), bis(p-fluorophenyl) disulfide (AM3), bis(p-chlorophenyl) thiosulfonate (AM6) and diisopropyl thiosulfonate (AM8) of the invention is tested against pathogenic fungi selected from Pythium aphanidermatum, Phytophthora cinnamiomi, Fusarium oxysporum, Sclerotinia sclerotiorum, Rhizoctonia solani and Botrytis cinerea.
Experimental design. The effects of mentioned compounds on growth of the fungi were tested on agar plates with various dilutions of the compounds. The fungus was inoculated in the middle of the agar plate. At various time intervals the diameter of the colony was measured.
The fungi were pregrown on appropriate agar media, for example potato dextrose agar or malt extract agar at 24 C. After 3, 7, 10 and 14 days of incubation at 24 C, the diameter of the fungal colonies were measured on the agar plates. Since the agar plates have a diameter of 8 cm, this was the maximum colony size.
Agar media were prepared with various dilutions of bis(p-chlorophenyl) disulfide (AM2), bis(p-fluorophenyl) disulfide (AM3), bis(p-chlorophenyl) thiosulfonate (AM6) and diisopropyl thiosulfonate (AM8).
The test compounds were added to the agar media when the liquid agar medium was still hand-warm to prevent heat-dependent decomposition of the compounds. 50-fold concentrated stock solutions of the antimicrobial compounds of each dilution were prepared in 50% tween-80 and 50% DMSO (in this way the concentrations DMSO and tween 80 were the same in all agar plates). The following concentrations of the antimicrobial compounds were used for each strain in agar plates: 1.0 mM, 0.50 mM, 0.25 mM, 0.125 mM and 0.063 mM in the corresponding medium as indicated in table 12. Each concentration was tested in 4-fold in 8 cm diameter petridishes and each dish contained 11 ml agar medium.
Hereafter, the plates were inoculated in the middle of the dish. Incubation took place at 24 C. Colony diameters were measured at t=3, 7, 10 and 14 days after inoculation. Since the diameter of the petri dishes are 8 cm this diameter was the maximal diameter that was measured.

Row | SMILES | cytotoxic effect on HepG2 cells (MTT) (HepG2 cell line) | growth of plant pathogens (plant pathogens)
1 | Clc1ccc(SSc2ccc(Cl)cc2)cc1 [Bis (4-chlorophenyl) disulfide, Bis(4-chlorophenyl) disulfide] | cytotoxic effects | clearly inhibited
2 | O=S(=O)(Sc1ccc(Cl)cc1)c1ccc(Cl)cc1 [Bis (4-chlorophenyl) thiosulfonate, Bis(4-chlorophenyl) thiosulfonate] | cytotoxic effects | clearly inhibited
3 | Fc1ccc(SSc2ccc(F)cc2)cc1 [Bis (4-fluorophenyl) disulfide, Bis(4-fluorophenyl) disulfide] | cytotoxic effects | clearly inhibited
4 | CC(C)SS(=O)(=O)C(C)C [Di-isopropyl thiosulfonate] | cytotoxic effects; also recorded: cytotoxicity is lowest | clearly inhibited
